Experimental data: PubChem BioAssay (NCI)
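Compound exposure: 48 hours, 5 concentrations, 96-well plates. At the GI50, growth is halved. The concentration for full growth arrest is given as TGI.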

Experiments:
Assay in all cases: NCI-60 cell line screen, 48 h
[1] = test system: 786-0 renal
[2] = test system: CAKI-1 renal
[3] = test system: IGROV1 ovarian
[4] = test system: OVCAR-3 ovarian
[5] = test system: OVCAR-5 ovarian
[6] = test system: SF-539 CNS
[7] = test system: SN12C renal
[8] = test system: UO-31 renal
[9] = test system: U251 CNS
[10] = test system: MCF7 breast

## CC1(C)OC(=O)C=C(O)O1.CC1(C)OC(=O)C=C(O)O1.CCO.Oc1ccc2c(c1)CCC2.[Ti]
[1]
  GI50: > 100 µM
  TGI: > 100 µM
[2]
  GI50: > 100 µM
  TGI: > 100 µM
[3]
  GI50: > 100 µM
  TGI: > 100 µM
[4]
  GI50: > 100 µM
  TGI: > 100 µM
[5]
  GI50: > 100 µM
  TGI: > 100 µM
[6]
  GI50: > 100 µM
  TGI: > 100 µM
[7]
  GI50: > 100 µM
  TGI: > 100 µM
[8]
  GI50: > 100 µM
  TGI: > 100 µM

## O=C(CC1(O)C(=O)Nc2ccccc21)c1ccc(O)cc1O (stereo not drawn)
[1]
  TGI: > 100 µM
[2]
  TGI: > 100 µM
[3]
  TGI: > 100 µM
[4]
  TGI: > 100 µM
[5]
  TGI: > 100 µM
[6]
  TGI: > 100 µM
[7]
  TGI: > 100 µM
[8]
  TGI: > 100 µM

## N#C/C(=C\c1ccc(Br)cc1)n1nnc2cc(F)c(F)cc21
[1]
  GI50: 1.67 µM
  TGI: 3.18 µM
[2]
  GI50: 1.37 µM
  TGI: 2.79 µM
[3]
  GI50: 1.74 µM
  TGI: 3.77 µM
[4]
  GI50: 1.89 µM
  TGI: 3.76 µM
[5]
  GI50: 1.85 µM
  TGI: 3.57 µM
[6]
  GI50: 1.86 µM
  TGI: 3.39 µM
[9]
  GI50: 1.6 µM
  TGI: 3.06 µM
[8]
  GI50: 1.46 µM
  TGI: 2.78 µM

## CC(=O)NC(Cc1c[nH]c2ccccc12)C(=O)O (stereo not drawn)
[1]
  TGI: > 100 µM
[2]
  TGI: > 100 µM
[3]
  TGI: > 100 µM
[10]
  TGI: > 100 µM
[4]
  TGI: > 100 µM
[5]
  TGI: > 100 µM
[7]
  TGI: > 100 µM
[9]
  TGI: > 100 µM
[8]
  TGI: > 100 µM

## COc1ccc(C2c3cc4c(cc3OC(O)(CO)C2C(=O)O)OCO4)c(OC)c1OC (stereo not drawn) (tested in a mixture with another compound)
[1]
  TGI: > 100 µM
[2]
  TGI: > 100 µM
[3]
  TGI: > 100 µM
[4]
  TGI: > 100 µM
[6]
  TGI: > 100 µM
[7]
  TGI: > 100 µM
[9]
  TGI: > 100 µM
[8]
  TGI: > 100 µM

## O[C@H]1[C@H]2[C@H](O)CCCN2C[C@H]1O
[1]
  TGI: > 100 µM
[2]
  TGI: > 100 µM
[3]
  TGI: > 100 µM
[4]
  TGI: > 100 µM
[5]
  TGI: > 100 µM
[6]
  TGI: > 100 µM
[7]
  TGI: > 100 µM
[9]
  TGI: > 100 µM
[8]
  TGI: > 100 µM

## C/C=C/CP(=O)(c1ccccc1)c1ccccc1
[1]
  TGI: > 100 µM
[3]
  TGI: > 100 µM
[4]
  TGI: > 100 µM
[5]
  TGI: > 100 µM
[6]
  TGI: > 100 µM
[7]
  TGI: > 100 µM
[9]
  TGI: > 100 µM
[8]
  TGI: > 100 µM

## N#Cc1c(N)nc(N2CCOCC2)c(C#N)c1-c1cccc(O)c1
[1]
  GI50: > 100 µM
  TGI: > 100 µM
[2]
  GI50: > 100 µM
  TGI: > 100 µM
[3]
  GI50: 18.7 µM
  TGI: 61.2 µM
[10]
  GI50: 47 µM
  TGI: > 100 µM
[4]
  GI50: 61.9 µM
  TGI: > 100 µM
[5]
  GI50: > 100 µM
  TGI: > 100 µM
[6]
  GI50: > 100 µM
  TGI: > 100 µM
[7]
  GI50: 69 µM
  TGI: > 100 µM
[9]
  GI50: > 100 µM
  TGI: > 100 µM

## C=C1C(=O)O[C@H]2[C@H]1CC/C(COC(=O)NCCc1c[nH]c3ccccc13)=C\CC[C@@]1(C)O[C@@H]21
[1]
  GI50: 1.17 µM
  TGI: 2.81 µM
[3]
  GI50: 1.09 µM
  TGI: 2.9 µM
[10]
  GI50: 0.585 µM
  TGI: 2.26 µM
[4]
  GI50: 1.04 µM
  TGI: 2.31 µM
[5]
  GI50: 2.3 µM
  TGI: 5.75 µM
[6]
  GI50: 1.62 µM
  TGI: 3.29 µM
[7]
  GI50: 1.2 µM
  TGI: 3.15 µM
[9]
  GI50: 4.88 µM
  TGI: 17.1 µM
[8]
  GI50: 1.43 µM
  TGI: 2.73 µM

## COc1ccc2c(c1)/C(=C/c1c(-c3ccc(C)cc3)nc3sc(C)cn13)C(=O)N2
[1]
  GI50: 6.68 µM
  TGI: 50.2 µM
[2]
  GI50: 35.3 µM
  TGI: > 100 µM
[3]
  GI50: 32.9 µM
  TGI: > 100 µM
[10]
  GI50: 12.1 µM
  TGI: > 100 µM
[4]
  GI50: 15.5 µM
  TGI: > 100 µM
[5]
  GI50: 16.6 µM
  TGI: 87.3 µM
[6]
  GI50: 20.3 µM
  TGI: > 100 µM
[7]
  GI50: 13.9 µM
  TGI: 31.9 µM
[8]
  GI50: 10.5 µM
  TGI: > 100 µM

## NC1=NN(c2ccccc2)C(=O)C1C(=O)C(=O)Nc1cccc(C(F)(F)F)c1 (stereo not drawn)
[1]
  TGI: > 100 µM
[2]
  TGI: > 100 µM
[3]
  TGI: > 100 µM
[4]
  TGI: > 100 µM
[5]
  TGI: > 100 µM
[6]
  TGI: > 100 µM
[7]
  TGI: > 100 µM
[9]
  TGI: > 100 µM
[8]
  TGI: > 100 µM

## C/C(=N\[N+](C)(C)C)C(c1ccccc1)C1(c2ccccc2)C(c2ccccc2)=C1c1ccccc1 (stereo not drawn)
[1]
  TGI: > 100 µM
[2]
  TGI: > 100 µM
[3]
  TGI: > 100 µM
[4]
  TGI: > 100 µM
[5]
  TGI: > 100 µM
[6]
  TGI: > 100 µM
[7]
  TGI: > 100 µM
[9]
  TGI: > 100 µM
[8]
  TGI: > 100 µM

## CCOC(=O)c1ccc(C(O)CC(=O)OC(C)(C)C)[nH]1 (stereo not drawn)
[1]
  GI50: 23.9 µM
  TGI: 83.3 µM
[2]
  GI50: 21.6 µM
  TGI: 87.2 µM
[3]
  GI50: 12.4 µM
  TGI: 30.4 µM
[10]
  GI50: 10.4 µM
  TGI: 30 µM
[4]
  GI50: 28.5 µM
  TGI: 68.2 µM
[5]
  GI50: 32.3 µM
  TGI: > 100 µM
[7]
  GI50: 17.4 µM
  TGI: 62.4 µM
[9]
  GI50: 39.5 µM
  TGI: > 100 µM
[8]
  GI50: 38.5 µM
  TGI: > 100 µM

## CC(=O)[CH-]C(C)=O.CC(=O)[CH-]C(C)=O.CC(=O)[CH-]C(C)=O.[Cl-].[Hf+4]
[1]
  GI50: > 100 µM
  TGI: > 100 µM
[2]
  GI50: > 100 µM
  TGI: > 100 µM
[3]
  GI50: > 100 µM
  TGI: > 100 µM
[4]
  GI50: > 100 µM
  TGI: > 100 µM
[5]
  GI50: > 100 µM
  TGI: > 100 µM
[6]
  GI50: > 100 µM
  TGI: > 100 µM
[7]
  GI50: > 100 µM
  TGI: > 100 µM
[9]
  GI50: > 100 µM
  TGI: > 100 µM
[8]
  GI50: > 100 µM
  TGI: > 100 µM

## CCOC(=O)CCc1c(C)c2ccc(O)cc2oc1=O
[1]
  TGI: > 100 µM
[2]
  TGI: > 100 µM
[3]
  TGI: > 100 µM
[10]
  TGI: > 100 µM
[4]
  TGI: > 100 µM
[5]
  TGI: > 100 µM
[6]
  TGI: > 100 µM
[7]
  TGI: > 100 µM
[9]
  TGI: > 100 µM

## CC1CC(C)C(=O)C(C(=O)CC2CC(=O)NC2=O)C1 (stereo not drawn)
[1]
  TGI: > 100 µM
[2]
  TGI: > 100 µM
[3]
  TGI: > 100 µM
[4]
  TGI: > 100 µM
[5]
  TGI: > 100 µM
[6]
  TGI: > 100 µM
[7]
  TGI: > 100 µM
[9]
  TGI: > 100 µM
[8]
  TGI: > 100 µM

## O=C(CCc1ccc(O)c(O)c1)c1ccc(O)c(O)c1O
[1]
  TGI: > 100 µM
[2]
  TGI: 37.9 µM
[3]
  TGI: > 100 µM
[10]
  TGI: 42 µM
[5]
  TGI: 49.4 µM
[6]
  TGI: 37.7 µM
[7]
  TGI: 31.9 µM
[9]
  TGI: 62.4 µM
[8]
  TGI: > 100 µM

## O=C(Nc1ccc(N=Nc2ccccc2)cc1)Sc1ccccc1C(=O)O
[1]
  TGI: > 100 µM
[2]
  TGI: > 100 µM
[3]
  TGI: 2.48 µM
[4]
  TGI: > 100 µM
[5]
  TGI: > 100 µM
[6]
  TGI: > 100 µM
[7]
  TGI: > 100 µM
[9]
  TGI: > 100 µM
[8]
  TGI: > 100 µM
